Source: patent publication US20070117743A1, “New antitumoral compounds” (priority 2003, published 2007)

Experiments:
Assay type in all cases: cell-based, human
A-549 = experiment: SRB colorimetric assay of cell growth and viability, A-549; conditions: 48 hours exposure; for GI50: read-out: GI50 A-549; for CC50: read-out: LC50 A-549
Description: (§1) The finality of this assay is to interrupt the growth of a “in vitro” tumor cell culture by means a continued exhibition of the cells to the sample to be testing.
(§2) This form of the assay employs 96 well cell culture microplates of 9 mm diameter (Faircloth, 1988; Mosmann, 1983). Most of the cell lines are obtained from American Type Culture Collection (ATCC) derived from different human cancer types.
(§3) Cells are maintained in RPMI 1640 10% FBS, supplemented with 0.1 g/l penicillin and 0.1 g/l streptomycin sulfate and then incubated at 37° C., 5% CO2 and 98% humidity. For the experiments, cells were harvested from subconfluent cultures using trypsin and resuspended in fresh medium before plating.
(§4) Cells are seeded in 96 well microtiter plates, at 5×10^3 cells per well in aliquots of 195 μL medium, and they are allowed to attach to the plate surface by growing in drug free medium for 18 hours. Afterward, samples are added in aliquots of 5 μL in a ranging from 10 to 10^−8 μg/mL, dissolved in DMSO:EtOH:PBS (0.5:0.5:99). After 48 hours exposure, the antitumor effect are measured by the SRB methodology: cells are fixed by adding 50 μL of cold 50% (wt/vol) trichloroacetic acid (TCA) and incubating for 60 minutes at 4° C. Plates are washed with deionized water and dried. One hundred μL of SRB solution (0.4% wt/vol in 1% acetic acid) is added to each microtiter well and incubated for 10 minutes at room temperature. Unbound SRB is removed by washing with 1% acetic acid. Plates are air dried and bound stain is solubilized with Tris buffer. Optical densities are read on a automated spectrophotometric plate reader at a single wavelength of 490 nm.
(§5) The values for mean+/− SD of data from triplicate wells are calculated. Some parameters for cellular responses can be calculated: GI=growth inhibition, TGI=total growth inhibition (cytostatic effect) and LC=cell killing (cytotoxic effect).

SK-MEL-28 = experiment: SRB colorimetric assay of cell growth and viability, SK-MEL-28; conditions: 48 hours exposure; for CC50: read-out: LC50 MEL-28
Description: as §1, §2, §3, §4, §5

HT-29 = experiment: SRB colorimetric assay of cell growth and viability, HT-29; conditions: 48 hours exposure; for GI50: read-out: GI50 HT-29; for CC50: read-out: LC50 HT-29
Description: as §1, §2, §3, §4, §5

LoVo = experiment: SRB colorimetric assay of cell growth and viability, LoVo; conditions: 48 hours exposure; for CC50: read-out: LC50 LOVO
Description: as §1, §2, §3, §4, §5

LoVo-Dox = experiment: SRB colorimetric assay of cell growth and viability, LoVo-Dox; conditions: 48 hours exposure; for CC50: read-out: LC50 LOVO-DOX
Description: as §1
A colorimetric type of assay, using sulforhodamine B (SRB) reaction has been adapted for a quantitative measurement of cell growth and viability [following the technique described by Philip Skehan, et al. (1990), New colorimetric cytotoxicity assay for anticancer drug screening, J. Natl. Cancer Inst., 82:1107-1112].
as §2, §3, §4, §5

DU-145 = experiment: SRB colorimetric assay of cell growth and viability, DU-145; conditions: 48 hours exposure
Description: as §1, §2, §3, §4, §5

IGROV-1 = experiment: SRB colorimetric assay of cell growth and viability, IGROV-1; conditions: 48 hours exposure
Description: as §1, §2, §3, §4, §5

IGROV-ET = experiment: SRB colorimetric assay of cell growth and viability, IGROV-ET; conditions: 48 hours exposure; for CC50: read-out: LC50 IGROV-ET
Description: as §1, §2, §3, §4, §5

HeLa = experiment: SRB colorimetric assay of cell growth and viability, HeLa; conditions: 48 hours exposure; for CC50: read-out: LC50 HELA
Description: as §1, §2, §3, §4, §5

HeLa-APL = experiment: SRB colorimetric assay of cell growth and viability, HeLa-APL; conditions: 48 hours exposure; for CC50: read-out: LC50 HELA-APL
Description: as §1, §2, §3, §4, §5

K-562 = experiment: SRB colorimetric assay of cell growth and viability, K-562; conditions: 48 hours exposure; for CC50: read-out: LC50 K-562
Description: as §1, §2, §3, §4, §5

PANC-1 = experiment: SRB colorimetric assay of cell growth and viability, PANC-1; conditions: 48 hours exposure; for CC50: read-out: LC50 PANC-1
Description: as §1, §2, §3, §4, §5

Structure (SMILES) | TGI A-549 (A-549) [Molar] | GI50 (A-549) [nM] | CC50 (A-549) [nM] | GI50 (SK-MEL-28) [nM] | TGI MEL-28 (SK-MEL-28) [Molar] | CC50 (SK-MEL-28) [µM] | TGI HT-29 (HT-29) [Molar] | GI50 (HT-29) [nM] | CC50 (HT-29) [µM] | GI50 (LoVo) [nM] | TGI LOVO (LoVo) [Molar] | CC50 (LoVo) [nM] | GI50 (LoVo-Dox) [nM] | TGI LOVO-DOX (LoVo-Dox) [Molar] | CC50 (LoVo-Dox) [µM] | GI50 (DU-145) [nM] | LC50 (concentration causing 50% net cell kill) (DU-145) [µM] | TGI DU-145 (DU-145) [Molar] | GI50 (IGROV-1) [nM] | LC50 (concentration causing 50% net cell killing) (IGROV-1) [µM] | further results
C/C=C1\NC(=O)[C@H](Cc2ccccc2)NC(=O)[C@@H](C(C)C)NC(=O)[C@@H]([C@@H](C)CC)NC(=O)[C@H](NC(=O)[C@H](NC(=O)[C@H](CCCN)NC(=O)[C@H]2CCCN2C(=O)[C@H](NC(=O)[C@@H](NC(=O)[C@@H](NC(=O)CNC(=O)CCCC(C)C)[C@@H](C)O)C(C)C)C(C)C)[C@@H](C)CC)[C@@H](C)OC(=O)[C@H](C(C)C)NC1=O [Compound 33, [Gly^13]-KF] | 3.08E−06 | 982 | 6960 | 6320 | 6.96E−06 | 6.96 | 6.96E−06 | 4510 | 6.96 | 3990 | 6.96E−06 | 6960 | 4850 | 6.96E−06 | 6.96 | 6960 | 6.96 | 6.96E−06 | 6960 | 6.96 | TGI IGROV (IGROV-1): 6.96E−06 Molar; GI50 (IGROV-ET): 5270 nM; TGI IGROV-ET (IGROV-ET): 6.96E−06 Molar; CC50 (IGROV-ET): 6.96 µM; GI50 (HeLa): 954 nM; TGI HELA (HeLa): 3.22E−06 Molar; CC50 (HeLa): 6.96 µM; GI50 (HeLa-APL): 6960 nM; TGI HELA-APL (HeLa-APL): 6.96E−06 Molar; CC50 (HeLa-APL): 6.96 µM; GI50 (K-562): 6960 nM; TGI K-562 (K-562): 6.96E−06 Molar; CC50 (K-562): 6.96 µM; GI50 (PANC-1): 385 nM; TGI PANC-1 (PANC-1): 1.70E−06 Molar; CC50 (PANC-1): 5040 nM
C/C=C1\NC(=O)[C@H](Cc2ccccc2)NC(=O)[C@@H](C(C)C)NC(=O)[C@@H]([C@@H](C)CC)NC(=O)[C@H](NC(=O)[C@H](NC(=O)[C@H](CCCN)NC(=O)[C@H]2CCCN2C(=O)[C@H](NC(=O)[C@@H](NC(=O)[C@@H](NC(=O)[C@@H](CCC(N)=O)NC(=O)CCCC(C)C)[C@@H](C)O)C(C)C)C(C)C)[C@@H](C)CC)[C@@H](C)OC(=O)[C@H](C(C)C)NC1=O [Compound 40, [D-Gln^13]-KF] | 7.83E−07 | 318 | 2450 | 1220 | 2.27E−06 | 4.2 | 1.87E−06 | 949 | 3.69 | 664 | 1.41E−06 | 2980 | 267 | 8.23E−07 | 2.23 | 1790 | 5.24 | 3.06E−06 | 1040 | 3.62 | TGI IGROV (IGROV-1): 1.94E−06 Molar; GI50 (IGROV-ET): 1310 nM; TGI IGROV-ET (IGROV-ET): 2.24E−06 Molar; CC50 (IGROV-ET): 3.79 µM; GI50 (HeLa): 642 nM; TGI HELA (HeLa): 1.58E−06 Molar; CC50 (HeLa): 3.86 µM; GI50 (HeLa-APL): 2280 nM; TGI HELA-APL (HeLa-APL): 5.94E−06 Molar; CC50 (HeLa-APL): 6.64 µM; GI50 (K-562): 1230 nM; TGI K-562 (K-562): 2.34E−06 Molar; CC50 (K-562): 4.42 µM; GI50 (PANC-1): 130 nM; TGI PANC-1 (PANC-1): 3.01E−07 Molar; CC50 (PANC-1): 863 nM
C/C=C1\NC(=O)[C@H](Cc2ccccc2)NC(=O)[C@@H](C(C)C)NC(=O)[C@@H]([C@@H](C)CC)NC(=O)[C@H](NC(=O)[C@H](NC(=O)[C@H](CCCN)NC(=O)[C@H]2CCCN2C(=O)[C@H](NC(=O)[C@@H](NC(=O)[C@@H](NC(=O)[C@H]2CCCN2C(=O)CCCC(C)C)[C@@H](C)O)C(C)C)C(C)C)[C@@H](C)CC)[C@@H](C)OC(=O)[C@H](C(C)C)NC1=O [Compound 37, [D-Pro^13]-KF] | 3.90E−08 | 17.4 | 813 | 76.6 | 2.76E−07 | 1.3 | 6.78E−06 | 391 | 6.78 | 114 | 1.02E−06 | 2970 | 1780 | 4.30E−06 | 6.78 | 228 | 1.96 | 5.81E−07 | 165 | 2.55 | TGI IGROV (IGROV-1): 8.27E−07 Molar; GI50 (IGROV-ET): 1210 nM; TGI IGROV-ET (IGROV-ET): 2.24E−06 Molar; CC50 (IGROV-ET): 4.15 µM; GI50 (HeLa): 12.9 nM; TGI HELA (HeLa): 2.83E−08 Molar; CC50 (HeLa): 0.062 µM; GI50 (HeLa-APL): 888 nM; TGI HELA-APL (HeLa-APL): 2.01E−06 Molar; CC50 (HeLa-APL): 4.55 µM; GI50 (K-562): 684 nM; TGI K-562 (K-562): 1.48E−06 Molar; CC50 (K-562): 3.2 µM; GI50 (PANC-1): 15.4 nM; TGI PANC-1 (PANC-1): 3.12E−08 Molar; CC50 (PANC-1): 62.8 nM
